A short description of data set [1]: Fluorescence quenching by triethylamine (Stern-Volmer). The conditions noted are these: Et3N as a quencher; determined from Ksv and singlet lifetime. It is filed as physicochemical. As to the method:
The fluorescence quenching by triethylamine (Et3N) was tested in order to gauge relative efficiencies of these compounds as DNA photo-oxidizers. […] The measured singlet lifetimes allowed us to determine the quenching rate constant, kq, which in this system, should be very close in magnitude to the rate of electron transfer, kET. The 2-3-fold increase in the rate of electron transfer from Et3N to excited singlet state of the meta- and ortho-isomers in comparison to the para-isomer is consistent with the well-known photochemical ortho, meta effect of an acceptor substituent. See Zimmerman, H. E., The Meta Effect in Organic Photochemistry: Mechanistic and Exploratory Organic Photochemistry, J. Am. Chem. Soc., 1995, 117, 8988-8991. doi: 10.1021/ja00140a014 and Zimmerman, H. E.; Alabugin, I. V. J. Am. Chem. Soc. 2001, […]. doi: 10.1021/ja002402c.

For the next data set, the system named is pBR322 plasmid DNA. Put plainly: Plasmid relaxation assay for DNA photocleavage. The data set is classed as biochemical. The following applies: 30 μM/base pair pBR322, pH 6, 7 and 8; for DNA cleavage efficiency: 15 μM lysine conjugate. As to the method:
The present invention is additionally directed to methods of forming a double strand cleavage in DNA, wherein compounds having the above Structures are contacted with and bind to double stranded DNA. The pH-dependency of DNA-cleavage of the two bis-lysine conjugates was investigated. The top of FIGS. 6A and 6B depicts the results of the plasmid relaxation assay for DNA photocleavage with 15 μM of acetylenic conjugates (3) (FIG. 6A) and (5) (FIG. 6B) and […] (b.p.) of pBR322 plasmid DNA at pH range of 6-9 after 10 min. of UV (>310 nm) irradiation. The bottom of each of FIGS. 6A and 6B are graphs of quantified cleavage data as a function of pH for conjugates (3) (FIG. 6A) and (5) (FIG. 6B). The reported values represent the average of three experiments. Code: Form I, diamond; Form II, square; Form III, triangle.
The plasmid relaxation assay experiments were carried out on 15 μM of lysine conjugate with 30 μM/base pair of pBR322 plasmid DNA at pH 6, 7 and 8.
Plasmid DNA Photocleavage. pBR322 plasmid DNA (4,361 bp; from BioLabs Inc., 1 μg/μL solution in 10 mM Tris-HCl (pH 8.0), and 1mM EDTA buffer) was diluted to a concentration of 0.01 μg/μL. The solution containing cleavage agent, DNA (30 μM/bp) in 20 mM sodium phosphate buffer was incubated for 1 hour at 30° C. Samples were placed on ice at a distance of 20 cm from 200 W Hg—Xe lamp (Spectra-Physics, Laser & Photonics Oriel Instruments with long pass filter with 300 nm cut-on wavelength).
Electrophoretic Analysis. The gel electrophoresis was carried out in lx TBE buffer at 80 V using Miligel FisherBiotech Horizontal Electrophoresis System. All gels were run on 1% agarose slab gels. Before loading, the DNA samples were mixed with 0.33 volume of tracking dye containing bromophenol blue (0.25%) and glycerol (30%) in water. After staining in ethidium bromide solution (2 μg/mL) for 1 hour, the gel was washed with water and pictures were taken. The relative quantities of the supercoiled, nicked, and linear DNA were calculated by integrating the “area” of each spot by the image analyzer software Total/Lab (Nonlinear Dynamics Ltd., UK). […]

The subject of data set [2] is A375 cells (Human Melanoma). Put plainly: Cell proliferation (MTT) assay. It is filed as cell-based. The conditions noted are these: A375, after 10 min UV irradiation at 360 nm. How it is done:
The ability of compounds (15), (16), and (17) to inhibit cell proliferation in human melanoma cell lines was tested in the dark and under photoactivation. See FIGS. 9A and 9B, which depict cell proliferation assays in A375 cells (Human Melanoma) exposed to bis-lysine conjugates (15) (square), (16) (up-pointing triangle) and (17) (down-pointing triangle) in dark (FIG. 9A) and after 10 min. of UV (360 nm) irradiation (FIG. 9B).
MTT Assay. A375 cells were seeded at 2000 cells per well in a 96-well plate. Seven 2-fold serial dilutions of the compounds were added to the cells in triplicate. Concentrations were from 1 to 0.016 μM of compounds. After 4 hs of incubation with the compounds, cells were UV-irradiated for ten minutes at 365 nm (UV transluminator, Spectronomics Corp. model TR-365R). After 72hs of incubation, MTT (Sigma® cat#M2128) was added to cells to a final concentration of 1.25 mg/mL and incubated for 60 minutes. Cells were centrifuged at 900 g for 5 minutes at room temperature. Media was replaced with DMSO and absorbance will be measured in a plate reader at 570 nm.

A further data set deals with DNA. The following applies: literature value; cited from earlier work.
The conditions of data set [3]: from Carey, Organic Chemistry, 6th ed.; cited from earlier work.

Structures can show the parent of a compound that is named as a salt. Marks after values point to notes of the source that are not given here.

Here are results for seven compounds from patent US8927728B2, “Dipeptide acetylene conjugates and a method for photocleavage of double strand DNA by dipeptide acetylene conjugates” (The Florida State University Research Foundation, Inc., priority 2011, dated 2015).

The compound `CC(=O)Nc1ccccc1C#Cc1c(F)c(F)nc(F)c1F` [(5) (ortho), N-(2-((Perfluoropyridin-4-yl)ethynyl)phenyl) acetamide] displayed a kq (quenching rate constant) in data set [1] of 1.43e+10 M⁻¹ s⁻¹.
On the same count and under the same terms, under `CC(=O)Nc1ccc(C#Cc2c(F)c(F)nc(F)c2F)cc1` [(3) (para), N-(4-((Perfluoropyridin-4-yl)ethynyl)phenyl)acetamide] stands 5.64e+09 M⁻¹ s⁻¹.
As for `NCCCC[C@H](N)C(=O)Nc1ccccc1C#Cc1c(F)c(F)nc(F)c1F` [(17), (S)-2,6-Diamino-N-(2-((perfluoropyridin-4-yl)ethynyl)phenyl)hexanamide Dihydrochloride], in the data set with pBR322 plasmid DNA, the DNA cleavage efficiency result is “least efficient DNA cleavage”. The double-strand breaks result in the data set with pBR322 plasmid DNA (15 μM) was “has not produced any double-strand breaks”. In data set [2], the phototoxicity entry is recorded as “some phototoxicity”.
As for `NCCCC[C@H](N)C(=O)Nc1cccc(C#Cc2c(F)c(F)nc(F)c2F)c1` [(16), (S)-2,6-Diamino-N-(3-((perfluoropyridin-4-yl)ethynyl)phenyl)hexanamide Dihydrochloride], the DNA cleavage efficiency result in the data set with pBR322 plasmid DNA was “less DNA cleavage than conjugate (15)”.
Consider calicheamicin, for which the “double strand breaks formed” value in the data set on DNA was 25-33%.
`CC(=O)Nc1cccc(C#Cc2c(F)c(F)nc(F)c2F)c1` [(4) (meta), N-(3-((Perfluoropyridin-4-yl)ethynyl)phenyl)acetamide]: the kq (quenching rate constant) in data set [1] was 1.36e+10 M⁻¹ s⁻¹.
In the case of `NCCCC[C@H](N)C(=O)O` [Lysine], in data set [3], the pKa1 is reported as 8.95^b and the pKa2 is on record as 10.53^b.
